Laboratory results as given in US10125118B2, “Heteroaryl compounds and their use as therapeutic drugs” (Dong-A Socio Holdings Co., Ltd., priority 2015, dated 2018).

Columns and labels:
[1] = biological target: human c-MER catalytic domain (Homo sapiens (Human), UniProt Q12866); experiment: LanthaScreen TR-FRET kinase assay, c-MER; details: read-out: Mer TK inhibition (IC50); Biochemical IC50, TR-FRET, 10 uM ATP
[2] = tested on: CD8-MerTK in Ba/F3-CDM cells; experiment: In cell MER kinase assay, Ba/F3-CDM cell proliferation without IL-3 (Celltiter-Glo); assay type: cell-based, murine; details: 48 hours compound treatment, read-out: Cell growth inhibition (GI50)
Method: To establish an in cell kinase assay for MerTK kinase, the IL-3 dependent Ba/F3 cells of murine lymphoid origin was transfected with CD8-MerTK. […] For a routine cellular assay, Ba/F3-CDM cells were seeded at 2,000 cells per well in 384-well cell culture plate containing DMEM/10% FBS culture media and incubated for 24 hours before addition of compounds pre-diluted in culture media. Following compound treatment, cells were further incubated for 48 hours and the proliferation was measured. To discriminate a Ba/F3 growth inhibition by a specific inhibition of MerTK kinase following compound treatment vs growth inhibition due to a non-specific unintended cytotoxicity of compounds, we routinely carried out control sets of Ba/F3 cells in parallel that grown in IL3-supplemented growth media. In the presence of IL-3, the proliferation of Ba/F3 is no longer dependent on the MerTK activity. Cell growth and proliferation was measured with Celltiter-Glo™ system (Promega, USA) according to the manufacturer's instruction. The half-maximal growth inhibitory concentration (GI50) value was calculated with Prism6.0 software (GraphPad, USA).

Sequence of human c-MER catalytic domain (Q12866 587-858): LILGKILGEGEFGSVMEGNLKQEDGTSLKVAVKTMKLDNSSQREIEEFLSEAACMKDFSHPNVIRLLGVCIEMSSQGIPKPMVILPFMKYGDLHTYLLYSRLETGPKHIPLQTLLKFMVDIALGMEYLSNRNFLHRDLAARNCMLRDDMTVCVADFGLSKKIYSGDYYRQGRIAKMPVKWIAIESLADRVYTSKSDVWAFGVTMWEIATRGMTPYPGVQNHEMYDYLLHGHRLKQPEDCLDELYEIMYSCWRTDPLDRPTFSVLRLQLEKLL

SMILES	IC50 [1] [nM]	GI50 [2] [nM]
CC(c1ccc(-c2ccc(CO[C@H]3CCC[C@@H]3NC(=O)c3cc(-c4ccc(F)nc4)cnc3N)cc2)cc1)N1CCN(C)CC1 (stereo in doubt) [Example 223, 6-amino-6′-fluoro-N-((1S,2S)-2-((4′-((R)-1-(4-methylpiperazin-1-yl)ethyl)-[1,1′-biphenyl]-4-yl)methoxy)cyclopentyl)-[3,3′-bipyridine]-5-carboxamide]	< 10	100 to 500
Cc1cccc(C)c1CO[C@H]1CCC[C@@H]1NC(=O)c1cc(-c2cnn(C)c2)cnc1N [Example 15, 2-amino-N-((1S,2S)-2-((2,6-dimethylbenzyl)oxy)cyclopentyl)-5-(1-methyl-1H-pyrazol-4-yl)nicotinamide]	> 1000	> 1000
CCc1cc(CO[C@H]2CCC[C@@H]2NC(=O)c2cc(-c3cnn(C)c3)cnc2N)ccc1C [Example 21, 2-amino-N-((1S,2S)-2-((3-ethyl-4-methylbenzyl)oxy)cyclopentyl)-5-(1-methyl-1H-pyrazol-4-yl)nicotinamide]	< 10	> 1000
CN1CCN(Cc2ccc(-c3ccc(OC[C@H]4CCC[C@@H]4NC(=O)c4cc(-c5cnn(C)c5)cnc4N)cc3)cc2)CC1 [Example 86, 2-amino-5-(1-methyl-1H-pyrazol-4-yl)-N-((1S,2S)-2-(((4′-((4-methylpiperazin-1-yl)methyl)-[1,1′-biphenyl]-4-yl)oxy)methyl)cyclopentyl)nicotinamide]	< 10	100 to 500
CNc1ccc(-c2ccc(CO[C@H]3CCC[C@@H]3NC(=O)c3cc(-c4cnn(C)c4)cnc3N)cc2)cc1 [Example 136, 2-amino-5-(1-methyl-1H-pyrazol-4-yl)-N-((1S,2S)-2-((4′-(methylamino)-[1,1′-biphenyl]-4-yl)methoxy)cyclopentyl)nicotinamide]	< 10	100 to 500
CN(C)c1ccc(-c2ccc(CO[C@H]3CCC[C@@H]3NC(=O)c3cc(-c4cnn(C)c4)cnc3N)cc2)cc1 [Example 137, 2-amino-N-((1S,2S)-2-((4′-(dimethylamino)-[1,1′-biphenyl]-4-yl)methoxy)cyclopentyl)-5-(1-methyl-1H-pyrazol-4-yl)nicotinamide]	< 10	< 100
Cn1cc(-c2cnc(N)c(C(=O)N[C@H]3CCC[C@@H]3OCc3ccc(-c4ccc(CO)cc4)cc3)c2)cn1 [Example 142, 2-amino-N-((1S,2S)-2-((4′-(hydroxymethyl)-[1,1′-biphenyl]-4-yl)methoxy)cyclopentyl)-5-(1-methyl-1H-pyrazol-4-yl)nicotinamide]	< 10	100 to 500
Cn1cc(-c2cnc(N)c(C(=O)N[C@H]3CCC[C@@H]3OCc3ccc(-c4ccc(CCN)cc4)cc3)c2)cn1 [Example 145, 2-amino-N-((1S,2S)-2-((4′-(2-aminoethyl)-[1,1′-biphenyl]-4-yl)methoxy)cyclopentyl)-5-(1-methyl-1H-pyrazol-4-yl)nicotinamide]	< 10	> 1000
CN1CCN(c2ccc(-c3ccc(CO[C@H]4CCC[C@@H]4NC(=O)c4cc(-c5cnn(C)c5)cnc4N)cc3)cc2)CC1 [Example 146, 2-amino-5-(1-methyl-1H-pyrazol-4-yl)-N-((1S,2S)-2-((4′-(4-methylpiperazin-1-yl)-[1,1′-biphenyl]-4-yl)methoxy)cyclopentyl)nicotinamide]	< 10	< 100
CN(C)CCOc1ccc(-c2ccc(CO[C@H]3CCC[C@@H]3NC(=O)c3cc(-c4cnn(C)c4)cnc3N)cc2)cc1 [Example 245, 2-amino-N-((1S,2S)-2-((4′-(2-(dimethylamino)ethoxy)-[1,1′-biphenyl]-4-yl)methoxy)cyclopentyl)-5-(1-methyl-M-pyrazol-4-yl)nicotinamide]	< 10	
Cn1cc(-c2cnc(N)c(C(=O)N[C@H]3CCC[C@@H]3OCc3ccccc3)c2)c(CNCCO)n1 [Example 262, 2-amino-N-((1S,2S)-2-(benzyloxy)cyclopentyl)-5-(3-(((2-hydroxyethyl)amino)methyl)-1-methyl-1H-pyrazol-4-yl)nicotinamide]	> 1000	
Cn1cc(-c2cnc(N)c(C(=O)N[C@H]3CCC[C@@H]3OCc3ccccc3)c2)c(CN2CCCC(O)C2)n1 (stereo partly drawn) [Example 263, 2-amino-N-((1S,2S)-2-(benzyloxy)cyclopentyl)-5-(3-((3-hydroxypiperidin-1-yl)methyl)-1-methyl-1H-pyrazol-4-yl)nicotinamide]	> 1000	
N#Cc1ccc(-c2cnc(N)c(C(=O)N[C@H]3CCC[C@@H]3OCc3ccccc3)c2)cc1 [Example 264, 2-amino-N-((1S,2S)-2-(benzyloxy)cyclopentyl)-5-(4-cyanophenyl)-nicotinamide]	> 1000	
Nc1ncc(-c2ccc(Oc3ccccc3)cc2)cc1C(=O)N[C@H]1CCC[C@@H]1OCc1ccccc1 [Example 267, 2-amino-N-((1S,2S)-2-(benzyloxy)cyclopentyl)-5-(4-phenoxyphenyl)nicotinamide]	> 1000	
Cc1ccc(CO[C@H]2CCC[C@@H]2NC(=O)c2cc(-c3ccc(CNCC4CCN(C)CC4)cc3)cnc2N)cc1C [Example 329, 2-amino-N-((1S,2S)-2-((3,4-dimethylbenzyl)oxy)cyclopentyl)-5-(4-((((1-methylpiperidin-4-yl)methyl)amino)methyl)phenyl)nicotinamide]	< 10	
Cc1ccc(CO[C@H]2CCC[C@@H]2NC(=O)c2cc(-c3ccc(C(=O)N4CCC(N5CCCC5)CC4)c(C)c3)cnc2N)cc1C [Example 330]	< 10	
Nc1ncc(-c2cnn(C3CCNCC3)c2)nc1C(=O)N[C@H]1CCCc2ccccc21 [Example 362, (S)-3-amino-6-(1-(piperidin-4-yl)-1H-pyrazol-4-yl)-N-(1,2,3,4-tetrahydronaphthalen-1-yl)pyrazine-2-carboxamide]	> 1000	
CN1CCN(Cc2ccc(-c3ccc(CO[C@H]4CCC[C@@H]4NC(=O)c4cc(-c5ccc(Cl)c(F)c5)cnc4N)cc3)cc2)CC1 [Example 373, 2-amino-5-(4-chloro-3-fluorophenyl)-N-((1S,2S)-2-((4′-((4-methylpiperazin-1-yl)methyl)-[1,1′-biphenyl]-4-yl)methoxy)cyclopentyl)nicotinamide]		100 to 500
CN1CCN(Cc2ccc(-c3ccc(CO[C@H]4CCC[C@@H]4NC(=O)c4cc(C5=CCCCC5)cnc4N)cc3)cc2)CC1 [Example 382, 2-amino-5-(cyclohex-1-en-1-yl)-N-((1S,2S)-2-((4′-((4-methylpiperazin-1-yl)methyl)-[1,1′-biphenyl]-4-yl)methoxy)cyclopentyl)nicotinamide]	< 10	
CN1CCN(Cc2ccc(-c3ccc(CO[C@H]4COCC4NC(=O)c4cc(-c5cnn(C)c5)cnc4N)cc3)cc2)CC1 (some centres unmarked) [Example 454]	< 10	
CN1CCN(Cc2ccc(Nc3ccc(C(=O)N[C@H]4CCC[C@@H]4OCc4ccccc4)c(N)n3)cc2)CC1 [Example 456, 2-amino-N-((1S,2S)-2-(benzyloxy)cyclopentyl)-6-((4-((4-methylpiperazin-1-yl)methyl)phenyl)amino)nicotinamide]	> 1000	
Nc1nc(Nc2ccccc2)ccc1C(=O)N[C@H]1CCC[C@@H]1OCc1ccccc1 [Example 457, 2-amino-N-((1S,2S)-2-(benzyloxy)cyclopentyl)-6-(phenylamino)-nicotinamide]	> 1000	
CN1CCN(c2ccc(Nc3ccc(C(=O)N[C@H]4CCC[C@@H]4OCc4ccccc4)c(N)n3)cc2)CC1 [Example 458, 2-amino-N-((1S,2S)-2-(benzyloxy)cyclopentyl)-6-((4-(4-methylpiperazin-1-yl)phenyl)amino)nicotinamide]	> 1000	
